According to patent US8569264B2, “Antibacterial 4,5-substituted aminoglycoside analogs having multiple substituents” (ISIS Pharmaceuticals, Inc., priority 2005, dated 2013):

How the values were obtained:
Format in all cases: cell-based
K. pneumoniae ATCC 10031 = assay: MIC, K. pneumoniae ATCC 10031; conditions: Klebsiella pneumoniae, ATCC10031, Example 112
Description: (§1) The MIC assays are carried out in 150 μL volume in duplicate in 96-well clear flat-bottom plates. The bacterial suspension from an overnight culture growth in appropriate medium is added to a solution of test compound in 4% DMSO in water. Final bacterial inoculum is approximately 10^5-10^6 CFU/well. […] Both ampicillin and tetracycline are used as antibiotic-positive controls in each screening assay for S. pyogenes, E. coli imp-, E. coli, S. aureus, E. faecalis, K. pneumoniae and P. vulgaris. Ciprofloxacin is used as an antibiotic positive control in each screening assay for P. aeruginosa.
(§2) The following compounds were prepared using methods illustrated in the previous examples. The compounds were also examined in standard bacterial assays against E. Coli, S. Aureus, P. aurginosa, K. pneumoniae, P. vulgaris, and A. baumannii to determine activities. Each of the bacterial cultures that are available from ATCC (www.atcc.org) is identified by its ATCC number. A. baumannii is gentamicin sensitive Acinetobacter baumannii #2 from Walter Reed.

E. coli ATCC 25922 = assay: MIC, E. coli ATCC 25922; conditions: Escherichia coli, ATCC25922, Example 112
Description: as §1, §2

S. aureus ATCC 29213 = assay: MIC, S. aureus ATCC 29213; conditions: Staphylococcus aureus, ATCC29213; Example 112
Description: (§3) The MIC assays are carried out in 150 μL volume in duplicate in 96-well clear flat-bottom plates. The bacterial suspension from an overnight culture growth in appropriate medium is added to a solution of test compound in 4% DMSO in water. Final bacterial inoculum is approximately 10^5-10^6 CFU/well. The percent growth of the bacteria in test wells relative to that observed for a well containing no compound is determined by measuring absorbance at 595 nm (A595) after 24 h. The MIC is determined as a range of single compound where the complete inhibition of growth is observed at the higher concentration and cells are viable at the lower concentrations. Both ampicillin and tetracycline are used as antibiotic-positive controls in each screening assay for S. pyogenes, E. coli imp-, E. coli, S. aureus, E. faecalis, K. pneumoniae and P. vulgaris. Ciprofloxacin is used as an antibiotic positive control in each screening assay for P. aeruginosa.
as §2, with “compound was” for “compounds were”, “pneumoniae” for “pneumoniae, P. vulgaris,”, “number.” for “number. A. baumannii is gentamicin sensitive Acinetobacter baumannii #2 from Walter Reed.”

A. baumannii ATCC 19606 = assay: MIC, A. baumannii ATCC 19606; conditions: Acinetobacter baumannii, ATCC19606; Example 112
Description: as §3
as §2, with “compound was” for “compounds were”, “pneumoniae” for “pneumoniae, P. vulgaris,”, “number.” for “number. A. baumannii is gentamicin sensitive Acinetobacter baumannii #2 from Walter Reed.”

P. aurginosa ATCC 27853 = assay: MIC, P. aurginosa ATCC 27853; conditions: Example 112
Description: as §3
as §2, with “compound was” for “compounds were”, “pneumoniae” for “pneumoniae, P. vulgaris,”, “number.” for “number. A. baumannii is gentamicin sensitive Acinetobacter baumannii #2 from Walter Reed.”

- MIC (K. pneumoniae ATCC 10031): < 16 µM
- MIC (E. coli ATCC 25922): < 16 µM
- MIC (S. aureus ATCC 29213): < 16 µM
- MIC (A. baumannii ATCC 19606): < 16 µM
- MIC (P. aurginosa ATCC 27853): < 16 µM
SMILES: NCC[C@H](O)C(=O)N[C@@H]1C[C@H](N)[C@@H](O[C@H]2O[C@H](CN)CC[C@H]2N)[C@H](O[C@@H]2O[C@H](CO)[C@@H](O[C@H]3O[C@@H](CN)[C@@H](O)[C@H](O)[C@H]3N)[C@H]2OCCNCCc2ccccc2)[C@H]1O [Compound 87, N-1-haba-2″-O-phenylethylaminoethyl-3′,4′-dideoxy neomycin]
